Source: US7994209B2, “3-phenoxymethylpyrrolidine compounds” (Theravance, Inc., priority 2009, dated 2011)

Legend:
hNET [1] = target: T1, hNET (Homo sapiens, UniProt P23975); assay: hNET membrane radioligand binding assay (3H-nisoxetine), Assay 1
hNET [2] = target: T1, hNET; assay: hNET neurotransmitter uptake assay (3H-NE), Assay 2; type: cell-based; design: expressed in transfected cells; host or cells: HEK-293; settings: norepinephrine reuptake inhibition, 3H-NE uptake, HEK-293 hNET cells (values without asterisk); read-out: NET pIC50 (converted)
hSERT [3] = target: T2, hSERT (Homo sapiens, UniProt P31645); assay: hSERT neurotransmitter uptake assay (3H-5-HT), Assay 2; type: cell-based; design: expressed in transfected cells; host or cells: HEK-293; settings: serotonin reuptake inhibition, 3H-5-HT uptake, HEK-293 hSERT cells (values without asterisk); read-out: SERT pIC50 (converted)
T2 sequence (P31645 whole entry): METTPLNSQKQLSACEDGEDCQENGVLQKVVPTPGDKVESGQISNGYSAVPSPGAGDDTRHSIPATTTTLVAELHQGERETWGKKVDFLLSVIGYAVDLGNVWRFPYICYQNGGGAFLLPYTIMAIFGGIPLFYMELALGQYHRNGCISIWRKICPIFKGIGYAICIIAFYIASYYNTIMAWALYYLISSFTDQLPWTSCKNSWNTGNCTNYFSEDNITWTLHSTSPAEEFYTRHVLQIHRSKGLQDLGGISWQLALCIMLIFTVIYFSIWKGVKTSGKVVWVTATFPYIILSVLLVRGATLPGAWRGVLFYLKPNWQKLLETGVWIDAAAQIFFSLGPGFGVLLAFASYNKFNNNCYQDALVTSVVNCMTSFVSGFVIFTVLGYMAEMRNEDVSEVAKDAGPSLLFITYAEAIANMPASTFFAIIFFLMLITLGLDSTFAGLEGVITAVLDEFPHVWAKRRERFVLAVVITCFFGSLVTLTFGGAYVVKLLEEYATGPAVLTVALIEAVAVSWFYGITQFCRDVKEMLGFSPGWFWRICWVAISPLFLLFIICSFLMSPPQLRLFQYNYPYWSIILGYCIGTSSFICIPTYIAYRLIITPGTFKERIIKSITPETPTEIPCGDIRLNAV

hSERT [4] = target: T2, hSERT; assay: hSERT membrane radioligand binding assay (3H-citalopram), Assay 1; settings: SERT pKi, hSERT HEK-293 membranes, 1.0 nM 3H-citalopram; values given as lower bounds

T1 sequence (P23975 whole entry): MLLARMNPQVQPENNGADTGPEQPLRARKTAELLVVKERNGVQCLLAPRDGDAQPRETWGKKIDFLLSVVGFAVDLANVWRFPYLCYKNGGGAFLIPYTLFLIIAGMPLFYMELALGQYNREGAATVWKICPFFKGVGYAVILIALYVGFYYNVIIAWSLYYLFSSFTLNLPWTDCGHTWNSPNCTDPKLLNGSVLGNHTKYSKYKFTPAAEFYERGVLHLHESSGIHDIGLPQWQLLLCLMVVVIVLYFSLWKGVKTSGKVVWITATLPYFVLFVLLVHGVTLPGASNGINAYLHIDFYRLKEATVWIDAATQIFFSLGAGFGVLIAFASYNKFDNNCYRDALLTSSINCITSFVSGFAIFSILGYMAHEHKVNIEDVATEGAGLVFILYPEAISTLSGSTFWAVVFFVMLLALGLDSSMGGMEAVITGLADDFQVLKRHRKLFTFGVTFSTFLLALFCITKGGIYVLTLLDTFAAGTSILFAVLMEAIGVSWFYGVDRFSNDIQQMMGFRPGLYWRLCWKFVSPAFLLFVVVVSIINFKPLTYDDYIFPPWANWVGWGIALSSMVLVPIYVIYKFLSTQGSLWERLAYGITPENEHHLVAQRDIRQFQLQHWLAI

Ki (hNET [1]) | IC50 (hNET [2]) | IC50 (hSERT [3]) | Ki (hSERT [4]) | Structure (SMILES)
≤ 0.01 µM | ≤ 0.01 µM | ≤ 0.1 µM | ≤ 0.01 µM | CCCC[C@@H](Oc1ccccc1Cl)[C@H]1CCNC1 [Example 8-1, (S)-3-[(R)-1-(2-Chlorophenoxy)pentyl]pyrrolidine]
≤ 0.01 µM | ≤ 0.1 µM | ≤ 0.1 µM | ≤ 0.01 µM | CCCC[C@@H](Oc1ccc(F)cc1)[C@H]1CCNC1 [Example 8-3, (S)-3-[(R)-1-(4-Fluorophenoxy)pentyl]pyrrolidine]
≤ 0.01 µM | ≤ 0.01 µM | ≤ 0.01 µM | ≤ 0.01 µM | CCCC[C@@H](Oc1ccc(Cl)cc1)[C@H]1CCNC1 [Example 8-4, (S)-3-[(R)-1-(4-Chlorophenoxy)pentyl]pyrrolidine]
≤ 0.01 µM | ≤ 0.01 µM | ≤ 0.1 µM | ≤ 0.01 µM | CCCC[C@@H](Oc1c(Cl)cccc1Cl)[C@H]1CCNC1 [Example 8-12, (S)-3-[(R)-1-(2,6-Dichlorophenoxy)pentyl]pyrrolidine]
≤ 0.01 µM | ≤ 0.01 µM | ≤ 0.01 µM | ≤ 0.01 µM | CCCC[C@@H](Oc1cc(Cl)cc(Cl)c1)[C@H]1CCNC1 [Example 8-13, (S)-3-[(R)-1-(3,5-Dichlorophenoxy)pentyl]pyrrolidine]
≤ 0.01 µM | ≤ 0.01 µM | ≤ 0.1 µM | ≤ 0.01 µM | CC(C)C[C@H](Oc1ccccc1F)[C@H]1CCNC1 [Example 10-1, (S)-3-[(S)-1-(2-Fluorophenoxy)-3-methylbutyl]pyrrolidine]
≤ 0.01 µM | ≤ 0.01 µM | ≤ 0.1 µM | ≤ 0.01 µM | CC(C)CC(Oc1ccccc1Cl)C1CCNC1 (stereo not drawn) [Example 10-3, 3-[1-(2-Chlorophenoxy)-3-methylbutyl]pyrrolidine]
≤ 0.01 µM | ≤ 0.01 µM | ≤ 0.1 µM | ≤ 0.01 µM | COc1ccccc1O[C@@H](CC(C)C)[C@H]1CCNC1 [Example 10-4, (S)-3-[(S)-1-(2-Methoxyphenoxy)-3-methylbutyl]pyrrolidine]
≤ 0.01 µM | ≤ 0.01 µM | ≤ 0.1 µM | ≤ 0.01 µM | CC(C)C[C@H](Oc1cccc(F)c1)[C@H]1CCNC1 [Example 10-5, (S)-3-[(S)-1-(3-Fluorophenoxy)-3-methylbutyl]pyrrolidine]
≤ 0.1 µM | ≤ 0.1 µM | ≤ 0.1 µM | ≤ 0.01 µM | CC(C)CC(Oc1cccc(C(F)(F)F)c1)C1CCNC1 (stereo not drawn) [Example 10-7, 3-[3-Methyl-1-(3-trifluoromethylphenoxy)butyl]pyrrolidine]
≤ 0.01 µM | ≤ 0.01 µM | ≤ 0.1 µM | ≤ 0.01 µM | CC(C)C[C@H](Oc1ccc(F)cc1)[C@H]1CCNC1 [Example 10-8, (S)-3-[(S)-1-(4-Fluorophenoxy)-3-methylbutyl]pyrrolidine]
≤ 0.01 µM | ≤ 0.01 µM | ≤ 0.1 µM | ≤ 0.01 µM | CC(C)CC(Oc1ccc(F)cc1)C1CCNC1 (stereo not drawn) [Example 10-9, 3-[1-(4-Fluorophenoxy)-3-methylbutyl]pyrrolidine]
≤ 0.01 µM | ≤ 0.01 µM | ≤ 0.01 µM | ≤ 0.01 µM | CC(C)CC(Oc1ccc(Cl)cc1)C1CCNC1 (stereo not drawn) [Example 10-10, 3-[1-(4-Chlorophenoxy)-3-methylbutyl]pyrrolidine]
≤ 0.01 µM | ≤ 0.01 µM | ≤ 0.01 µM | ≤ 0.01 µM | CC(C)C[C@@H](Oc1ccc(Cl)cc1)[C@H]1CCNC1 [Example 10-11, (S)-3-[(R)-1-(4-Chlorophenoxy)-3-methylbutyl]pyrrolidine]
≤ 0.01 µM | ≤ 0.01 µM | ≤ 0.01 µM | ≤ 0.01 µM | CC(C)C[C@H](Oc1ccc(Cl)cc1)[C@H]1CCNC1 [Example 10-13, (S)-3-[(S)-1-(4-Chlorophenoxy)-3-methylbutyl]pyrrolidine]
≤ 0.01 µM | ≤ 0.1 µM | ≤ 0.01 µM | ≤ 0.01 µM | CC(C)CC(Oc1ccc(C(F)(F)F)cc1)C1CCNC1 (stereo not drawn) [Example 10-15, 3-[3-Methyl-1-(4-trifluoromethylphenoxy)butyl]pyrrolidine]
≤ 0.01 µM | ≤ 0.01 µM | ≤ 0.01 µM | ≤ 0.01 µM | CC(C)C[C@H](Oc1ccc(C(F)(F)F)cc1)[C@H]1CCNC1 [Example 10-16, (S)-3-[(S)-3-Methyl-1-(4-trifluoromethylphenoxy)butyl]pyrrolidine]
≤ 0.01 µM | ≤ 0.01 µM | ≤ 0.01 µM | ≤ 0.01 µM | CC(C)C[C@@H](Oc1cccc(Cl)c1F)[C@H]1CCNC1 [Example 10-18, (S)-3-[(R)-1-(3-Chloro-2-fluorophenoxy)-3-methylbutyl]pyrrolidine]
≤ 0.01 µM | ≤ 0.01 µM | ≤ 0.01 µM | ≤ 0.01 µM | CC(C)C[C@H](Oc1cccc(Cl)c1F)[C@H]1CCNC1 [Example 10-19, (S)-3-[(S)-1-(3-Chloro-2-fluorophenoxy)-3-methylbutyl]pyrrolidine]
≤ 0.01 µM | ≤ 0.1 µM | ≤ 0.1 µM | ≤ 0.01 µM | CC(C)CC(Oc1cccc(C(F)(F)F)c1F)C1CCNC1 (stereo not drawn) [Example 10-20, 3-[1-(2-Fluoro-3-trifluoromethylphenoxy)-3-methylbutyl]pyrrolidine]
≤ 0.01 µM | ≤ 0.01 µM | ≤ 0.01 µM | ≤ 0.01 µM | CC(C)CC(Oc1cccc(Cl)c1Cl)C1CCNC1 (stereo not drawn) [Example 10-22, 3-[1-(2,3-Dichlorophenoxy)-3-methylbutyl]pyrrolidine]

The remaining lines, values behind:

Structure (SMILES) | Ki (hNET [1]) | IC50 (hNET [2]) | IC50 (hSERT [3]) | Ki (hSERT [4])
Cc1c(Cl)cccc1O[C@@H](C(C)C)[C@H]1CCNC1 [Example 6-39, (S)-3-[(S)-1-(3-Chloro-2-methylphenoxy)-2-methylpropyl]pyrrolidine] | ≤ 0.01 µM | ≤ 0.01 µM | ≤ 0.01 µM | ≤ 0.01 µM
Cc1c(Cl)cccc1O[C@H](C(C)C)[C@H]1CCNC1 [Example 6-40, (S)-3-[(R)-1-(3-Chloro-2-methylphenoxy)-2-methylpropyl]pyrrolidine] | ≤ 0.01 µM | ≤ 0.01 µM | ≤ 0.01 µM | ≤ 0.01 µM
Cc1cccc(O[C@H](C(C)C)[C@H]2CCNC2)c1C [Example 6-43, (S)-3-[(R)-1-(2,3-Dimethylphenoxy)-2-methylpropyl]pyrrolidine] | ≤ 0.01 µM | ≤ 0.01 µM | ≤ 0.01 µM | ≤ 0.01 µM
Cc1cc(Cl)ccc1O[C@@H](C(C)C)[C@H]1CCNC1 [Example 6-45, (S)-3-[(S)-1-(4-Chloro-2-methylphenoxy)-2-methylpropyl]pyrrolidine] | ≤ 0.01 µM | ≤ 0.01 µM | ≤ 0.01 µM | ≤ 0.01 µM
COc1cc(Cl)ccc1O[C@@H](C(C)C)[C@H]1CCNC1 [Example 6-47, (S)-3-[(S)-1-(4-Chloro-2-methoxyphenoxy)-2-methylpropyl]pyrrolidine] | ≤ 0.01 µM | ≤ 0.01 µM | ≤ 0.01 µM | ≤ 0.01 µM
CC(C)C(Oc1ccc(Cl)cc1C(F)(F)F)C1CCNC1 (stereo not drawn) [Example 6-50, 3-[1-(4-Chloro-2-trifluoromethylphenoxy)-2-methylpropyl]pyrrolidine] | ≤ 0.01 µM | ≤ 0.01 µM | ≤ 0.1 µM | ≤ 0.01 µM
CC(C)[C@H](Oc1ccc(Cl)c(F)c1)[C@H]1CCNC1 [Example 6-56, (S)-3-[(S)-1-(4-Chloro-3-fluorophenoxy)-2-methylpropyl]pyrrolidine] | ≤ 0.01 µM | ≤ 0.01 µM | ≤ 0.01 µM | ≤ 0.01 µM
CC(C)[C@H](Oc1ccc(Cl)c(Cl)c1)[C@H]1CCNC1 [Example 6-62, (S)-3-[(S)-1-(3,4-Dichlorophenoxy)-2-methylpropyl]pyrrolidine] | ≤ 0.01 µM | ≤ 0.01 µM | ≤ 0.01 µM | ≤ 0.01 µM
CC(C)[C@H](Oc1cc(Cl)cc(Cl)c1)[C@H]1CCNC1 [Example 6-66, (S)-3-[(S)-1-(3,5-Dichlorophenoxy)-2-methylpropyl]pyrrolidine] | ≤ 0.1 µM | ≤ 0.1 µM | ≤ 0.01 µM | ≤ 0.01 µM
CC(C)[C@@H](Oc1cc(Cl)cc(Cl)c1)[C@H]1CCNC1 [Example 6-68, (S)-3-[(R)-1-(3,5-Dichlorophenoxy)-2-methylpropyl]pyrrolidine] | ≤ 0.01 µM | ≤ 0.01 µM | ≤ 0.01 µM | ≤ 0.01 µM
Cc1cc(O[C@@H](C(C)C)[C@H]2CCNC2)ccc1Cl [Example 6-70, (S)-3-[(S)-1-(4-Chloro-3-methylphenoxy)-2-methylpropyl]pyrrolidine] | ≤ 0.01 µM | ≤ 0.01 µM | ≤ 0.01 µM | ≤ 0.01 µM
CC(C)C(Oc1ccc(Cl)cc1)C1CCNC1 (stereo not drawn) [Example 6-74, 3-[1-(4-Chlorophenoxy)-2-methylpropyl]pyrrolidine] | ≤ 0.01 µM | ≤ 0.01 µM | ≤ 0.01 µM | ≤ 0.01 µM
CC(C)[C@@H](Oc1ccc(Cl)cc1)[C@@H]1CCNC1 [Example 6-75, (R)-3-[(R)-1-(4-Chlorophenoxy)-2-methylpropyl]pyrrolidine] | ≤ 0.1 µM | ≤ 0.1 µM | ≤ 0.01 µM | ≤ 0.01 µM
CCCC[C@@H](Oc1cc(F)c(F)cc1F)[C@H]1CCNC1 [Example 7, (S)-3-[(R)-1-(2,4,5-Trifluorophenoxy)pentyl]pyrrolidine] | ≤ 0.01 µM | ≤ 0.01 µM | ≤ 0.1 µM | ≤ 0.01 µM
CCCC[C@@H](Oc1ccccc1C(F)(F)F)[C@H]1CCNC1 [Example 8-2, (S)-3-[(R)-1-(2-Trifluoromethylphenoxy)pentyl]pyrrolidine] | ≤ 0.01 µM | ≤ 0.1 µM | ≤ 0.1 µM | ≤ 0.01 µM
